Assay results as given in patent publication US6124498A, “Hydroxynaphthoic acids and derivatives” (University Of New Mexico, priority 1998, dated 2000).
“Also recorded” adds a separate entry of the source.

Tests used:
pLDH [1] = biological target: T1, pLDH (Plasmodium falciparum, UniProt Q27743); assay: biochemical; type: biochemical; conditions: for mode of inhibition of pLDH with respect to cofactor (NADH): vs cofactor NADH; for selectivity for pLDH compared to LDH-H: pLDH vs LDH-H
T1 construct: made in house; host or cells: E. coli
T1 sequence (Q27743 whole entry): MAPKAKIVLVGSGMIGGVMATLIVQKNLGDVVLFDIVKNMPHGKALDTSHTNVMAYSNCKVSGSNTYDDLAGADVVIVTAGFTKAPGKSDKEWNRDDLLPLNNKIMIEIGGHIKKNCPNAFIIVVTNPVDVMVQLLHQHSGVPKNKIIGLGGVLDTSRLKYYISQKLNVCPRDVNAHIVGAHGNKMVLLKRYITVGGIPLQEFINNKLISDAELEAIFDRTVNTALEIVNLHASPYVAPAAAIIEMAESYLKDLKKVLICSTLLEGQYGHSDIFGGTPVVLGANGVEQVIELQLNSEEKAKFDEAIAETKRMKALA
Protocol: (§1) Human LDH-H4 and LDH-M4 were from Sigma.
(§2) LDH activity in the direction of NADH reduction of pyruvate to L-lactate was determined spectrophotometrically in pH 7.5 Tris buffer, 100 mM, containing 10 mM pyruvate and […], 25° C., 340 nm, ε=6.2 mM^-1 cm^-1. Michaelis constants were determined by nonlinear regression analysis of initial rate data using the Enzfitter program (Elsevier-Biosoft). Ki values were determined from double reciprocal plots by linear regression analysis.

human LDH-M (LDH-M4) = biological target: T2, human LDH-M (LDH-M4) (Homo sapiens, UniProt P00338); assay: Inhibition of human lactate dehydrogenase LDH-M (LDH-M4), NADH reduction of pyruvate; type: biochemical; conditions: for mode of inhibition of LDH-M with respect to cofactor (NADH): vs cofactor NADH; for selectivity for LDH-M compared to LDH-H: LDH-M vs LDH-H; for change in inhibition / dissociation constant of LDH-M relative to 13: group at 7-position, compared to 13
T2 construct: purchased Sigma
Protocol: Recombinant pLDH was produced in E. coli, similar to the procedure described by Bzik et al. in "Expression of Plasmodium falciparum Lactate Dehydrogenase in Escherida coli." in Mol. Biochem. Parasitol., 1993, 59, 155-166 and was purified by Cibacron blue affinity chromatography and chromatofocusing as described previously. Human LDH-H4 and LDH-M4 were from Sigma.
as §2

alcohol dehydrogenase = assay: Inhibition of alcohol dehydrogenase; type: biochemical; conditions: FIG. 14D
Protocol: (§3) Other studies with other dehydrogenases that contain the classic Rossman fold, in addition to LDH, were carried out to test that inhibition of dehydrogenases by substituted didhydroxynaphthoic acids is not limited to inhibition of LDH. A number of dehydrogenases were examined as shown in FIGS. 14A (2,3-dihydroxy-6-methyl-7-(o-methylbenzyl)-4-(1-methylethyl)-1-naphthoic acid (25e) inhibition D-lactate dehydrogenase), 14B (2,3-dihydroxy-6-methyl-7-(m-methylbenzyl)-4-(1-methylethyl)-1-naphthoic acid (25f) inhibition of malate dehydrogenase), 14C (compound 25b inhibition of glucose 6-phosphate dehydrogenase) and 14D (compound 21e inhibition of alcohol dehydrogenase).

human LDH-H (LDH-H4) = biological target: T3, human LDH-H (LDH-H4) (Homo sapiens, UniProt P07195); assay: Inhibition of human lactate dehydrogenase LDH-H (LDH-H4), NADH reduction of pyruvate; type: biochemical; conditions: group at 7-position, compared to 13
T3 construct: purchased Sigma
T3 sequence (P07195 2-334 limits assumed): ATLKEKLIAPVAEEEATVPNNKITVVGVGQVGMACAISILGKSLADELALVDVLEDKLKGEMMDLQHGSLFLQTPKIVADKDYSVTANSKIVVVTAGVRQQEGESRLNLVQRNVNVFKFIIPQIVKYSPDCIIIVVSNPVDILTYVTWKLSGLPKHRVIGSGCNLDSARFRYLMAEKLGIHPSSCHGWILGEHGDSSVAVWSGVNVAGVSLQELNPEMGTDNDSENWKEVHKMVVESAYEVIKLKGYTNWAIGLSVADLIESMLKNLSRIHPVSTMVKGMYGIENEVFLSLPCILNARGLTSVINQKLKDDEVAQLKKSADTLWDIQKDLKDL
Protocol: as §1, §2

[2] = system: glucose 6-phosphate dehydrogenase; assay: Inhibition of glucose 6-phosphate dehydrogenase; type: biochemical; conditions: FIG. 14C
Protocol: as §3

LDH-M4 = assay: Quenching of intrinsic protein fluorescence of LDH-M4 in presence and absence of ADP; type: binding, human; conditions: presence vs absence of ADP
Description: (§4) To test the Pan-Active Site inhibitor model for the compounds of the present invention, the binding of dihydroxynaphthoic acids to pLDH and human LDH was examined using fluorescence techniques. The effects of ADP on the binding of inhibitors was compared with the effects of ADP on the binding of NADH to determine which part of the cofactor binding site was the target of the inhibitors. Representative results are shown in FIGS. 13A and 13B for the binding of compound 25c to pLDH. […] In FIG. 13B is shown the quenching of pLDH fluorescence by compound 25c in the presence and absence of ADP.

pLDH [3] = biological target: T1, pLDH; assay: Quenching of intrinsic protein fluorescence of pLDH in presence and absence of ADP; type: binding; conditions: presence vs absence of ADP
Description: as §4

D-lactate dehydrogenase = assay: Inhibition of D-lactate dehydrogenase; type: biochemical; conditions: FIG. 14A
Protocol: as §3

malate dehydrogenase = assay: Inhibition of malate dehydrogenase; type: biochemical; conditions: FIG. 14B
Protocol: as §3

[4] = system: IMP dehydrogenase type 11; conditions: dominant isoenzyme in neoplastic cells; cited from earlier work

## Cc1ccc2c(C(=O)O)c(O)c(O)c(C(C)C)c2c1 [Compound 13, 8-deoxyhemigossylic acid, reference compound]
pLDH [1]; in words
  dissociation constant for inhibition of pLDH: low μmolar range
pLDH [1]
  mode of inhibition of pLDH with respect to cofactor (NADH): competitive with the binding of NADH
Human LDH-M (LDH-M4)
  mode of inhibition of LDH-M with respect to cofactor (NADH): competitive with the binding of NADH

## Cc1ccc2c(C(=O)O)c(O)c(O)c(C)c2c1 [Compound 21a, 2,3-Dihydroxy-4,6-dimethyl-1-naphthoic acid]
pLDH [1]
  selectivity for pLDH compared to LDH-H: selectivity for pLDH and LDH-M compared to LDH-H
Human LDH-M (LDH-M4)
  selectivity for LDH-M compared to LDH-H: selectivity for pLDH and LDH-M compared to LDH-H

## Cc1cc2c(C)c(O)c(O)c(C(=O)O)c2cc1C [Compound 21b, 2,3-Dihydroxy-4,6,7-trimethyl-1-naphthoic acid]
pLDH [1]
  selectivity for pLDH compared to LDH-H: selectivity for pLDH and LDH-M compared to LDH-H
Human LDH-M (LDH-M4)
  selectivity for LDH-M compared to LDH-H: selectivity for pLDH and LDH-M compared to LDH-H

## Cc1cc2c(C)c(O)c(O)c(C(=O)O)c2cc1Cc1ccccc1 [Compound 21c, 7-Benzyl-2,3-dihydroxy-4,6-dimethyl-1-naphthoic acid]
pLDH [1]
  selectivity for pLDH compared to LDH-H: selectivity for pLDH and LDH-M compared to LDH-H
Human LDH-M (LDH-M4)
  selectivity for LDH-M compared to LDH-H: selectivity for pLDH and LDH-M compared to LDH-H

## CCCc1c(O)c(O)c(C(=O)O)c2cc(C)c(C)cc12 [Compound 21e, 2,3-Dihydroxy-6,7-dimethyl-4-n-propyl-1-naphthoic acid]
Alcohol dehydrogenase
  inhibition of alcohol dehydrogenase: inhibition
Human LDH-M (LDH-M4)
  selectivity for LDH-M compared to LDH-H: 190 fold

## Cc1cc2c(C(=O)O)c(O)c(O)c(C(C)C)c2cc1C [Compound 25a, 2,3-Dihydroxy-6,7-dimethyl-4-(1-methylethyl)-1-naphthoic acid]
pLDH [1]; group at 7-position, compared to 13
  change in inhibition / dissociation constant of pLDH relative to 13: little change in the dissociation constants
Human LDH-M (LDH-M4)
  change in inhibition / dissociation constant of LDH-M relative to 13: little change in the dissociation constants

## Cc1cc2c(C(C)C)c(O)c(O)c(C(=O)O)c2cc1Cc1ccccc1 [Compound 25b, 7-Benzyl-2,3-dihydroxy-6-methyl-4-(1-methylethyl)-1-naphthoic acid]
Human LDH-H (LDH-H4)
  change in inhibition / dissociation constant of LDH-H relative to 13: markedly stronger inhibition
[2]
  inhibition of glucose 6-phosphate dehydrogenase: inhibition
Human LDH-M (LDH-M4)
  change in inhibition / dissociation constant of LDH-M relative to 13: markedly stronger inhibition

## Cc1cc2c(C(C)C)c(O)c(O)c(C(=O)O)c2cc1Cc1ccc(C(F)(F)F)cc1 [Compound 25c, 7-p-Trifluoromethylbenzyl-2,3-dihydroxy-6-methyl-4-(1-methylethyl)-1-naphthoic acid]
pLDH [1]; pH 7.5 Tris, 25° C., read-out: Ki for inhibition of pLDH
  Ki: 200 nM
pLDH [1]; pLDH over LDH-H
  selectivity for pLDH over LDH-H: 400 fold
pLDH [1]; pLDH over LDH-M
  selectivity for pLDH over LDH-M: 75 fold
pLDH [1]
  mode of inhibition of pLDH with respect to cofactor (NADH): competitive against both cofactor and substrate
pLDH [1]; vs human LDH-M and LDH-H
  selectivity for pLDH compared to either human LDH: highly selective in favor of pLDH
pLDH [1]; vs substrate (pyruvate)
  mode of inhibition of pLDH with respect to substrate: competitive against both cofactor and substrate; also recorded: appears competitive
LDH-M4
  effect of ADP on binding to LDH-M4 (fluorescence quenching): The same results were obtained with LDH-M4
pLDH [3]
  competition with the ADP part of the NADH binding site of pLDH: not competing with the ADP part of the NADH binding site
  effect of ADP on binding to pLDH (fluorescence quenching): enhances the binding of inhibitor

## Cc1ccc(Cc2cc3c(C(=O)O)c(O)c(O)c(C(C)C)c3cc2C)cc1 [Compound 25d, 2,3-dihydroxy-6-methyl-7-(p-methylbenzyl)-4-(1-methylethyl)-1-naphthoic acid]
Human LDH-M (LDH-M4); pH 7.5 Tris, 25° C.
  Kd: 30 nM
Human LDH-M (LDH-M4)
  mode of inhibition of LDH-M with respect to cofactor (NADH): competitive against both cofactor and substrate
Human LDH-M (LDH-M4); vs substrate (pyruvate), FIGS. 12A and 12B
  mode of inhibition of LDH-M4 with respect to substrate: competitive against both cofactor and substrate

## Cc1ccccc1Cc1cc2c(C(=O)O)c(O)c(O)c(C(C)C)c2cc1C [Compound 25e, 2,3-dihydroxy-6-methyl-7-(o-methylbenzyl)-4-(1-methylethyl)-1-naphthoic acid]
D-lactate dehydrogenase
  inhibition of D-lactate dehydrogenase: inhibition

## Cc1cccc(Cc2cc3c(C(=O)O)c(O)c(O)c(C(C)C)c3cc2C)c1 [Compound 25f, 2,3-dihydroxy-6-methyl-7-(m-methylbenzyl)-4-(1-methylethyl)-1-naphthoic acid]
Malate dehydrogenase
  inhibition of malate dehydrogenase: inhibition

## NC(=O)C1=CN([C@@H]2O[C@H](COP(=O)(O)OP(=O)(O)OC[C@H]3O[C@@H](n4cnc5c(N)ncnc54)[C@H](O)[C@@H]3O)[C@@H](O)[C@H]2O)C=CC1 [NADH, reference compound]
pLDH [3]
  effect of ADP on binding to pLDH (fluorescence quenching): the presence of ADP competes with the binding of NADH

## NC(=O)c1csc([C@@H]2O[C@H](COP(=O)(O)OP(=O)(O)OC[C@H]3O[C@@H](n4cnc5c(N)ncnc54)[C@H](O)[C@@H]3O)[C@@H](O)[C@H]2O)n1 [thiazole-4-carboxamide adenine dinucleotide]
[4]
  inhibition of IMP dehydrogenase type 11: potent inhibitor
